Experimental data reported in US11820766B2, “Monoacylglycerol lipase modulators” (Janssen Pharmaceutica NV, priority 2018, dated 2023).
Structures can show the parent of a compound that is named as a salt.

Molecular target: T1, human MGL from HeLa cells (Homo sapiens, UniProt Q99685)
T1 construct: combining endogenously expressed MGL from HeLa cells with test compounds; endogenous in cells; host or cells: HeLa cells / cell homogenates
T1 sequence (Q99685 1-303): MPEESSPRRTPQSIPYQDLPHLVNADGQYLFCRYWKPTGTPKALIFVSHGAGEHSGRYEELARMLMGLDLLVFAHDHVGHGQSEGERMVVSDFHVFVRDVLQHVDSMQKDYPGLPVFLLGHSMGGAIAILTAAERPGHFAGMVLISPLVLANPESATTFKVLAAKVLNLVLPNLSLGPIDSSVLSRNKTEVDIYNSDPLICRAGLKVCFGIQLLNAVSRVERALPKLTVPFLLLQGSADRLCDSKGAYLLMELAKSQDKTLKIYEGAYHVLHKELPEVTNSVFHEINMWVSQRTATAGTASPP
Assay: In vitro MGL activity assay: [glycerol-1,3-3H]-oleyl glycerol cleavage by MGL from HeLa cells
Type: biochemical
Conditions: 300 nM [Glycerol-1,3-3H]-oleyl glycerol, one hour
Excerpt: MGL is the predominant hydrolase in HeLa cells/cell homogenates.

Row | IC50 | SMILES
1 | 0.141 µM | C[C@H]1c2nn(C)c(-c3cc(F)c(F)c(F)c3)c2CCN1C(=O)c1ccc2c(ccc[n+]2[O-])c1 [Example 516, [(7S)-2,7-Dimethyl-3-(3,4,5-trifluorophenyl)-5,7-dihydro-4H-pyrazolo[3,4-c]pyridin-6-yl]-(1-oxidoquinolin-1-ium-6-yl)methanone]
2 | 0.0142 µM | C[C@H]1c2nn(C)c(-c3cc(F)c(F)c(F)c3)c2CCN1C(=O)c1cnn(C)c1C1CC1(F)F (single isomer, unassigned) [Example 338, (5-((S*)-2,2-Difluorocyclopropyl)-1-methyl-1H-pyrazol-4-yl)((S)-2,7-dimethyl-3-(3,4,5-trifluorophenyl)-2,4,5,7-tetrahydro-6H-pyrazolo[3,4-c]pyridin-6-yl)methanone]
3 | 0.0853 µM | Cc1cnc2c(C(=O)N3CCc4c(nn(C)c4-c4cc(F)c(F)c(F)c4)[C@@H]3C)cccc2n1 [Example 474, [(7S)-2,7-Dimethyl-3-(3,4,5-trifluorophenyl)-5,7-dihydro-4H-pyrazolo[3,4-c]pyridin-6-yl]-(2-methylquinoxalin-5-yl)methanone]
4 | 0.127 µM | C[C@H]1c2nn(C)c(-c3cc(F)c(F)c(F)c3)c2CCN1C(=O)c1cnc2ccccc2n1 [Example 477, [(7S)-2,7-Dimethyl-3-(3,4,5-trifluorophenyl)-5,7-dihydro-4H-pyrazolo[3,4-c]pyridin-6-yl]-quinoxalin-2-yl-methanone]
5 | 0.0103 µM | Cc1nc2ccccn2c1C(=O)N1CCc2c(nn(C)c2-c2cc(F)c(F)c(F)c2)[C@@H]1C [Example 397, [(7S)-2,7-Dimethyl-3-(3,4,5-trifluorophenyl)-5,7-dihydro-4H-pyrazolo[3,4-c]pyridin-6-yl]-(2-methylimidazo[1,2-a]pyridin-3-yl)methanone]
6 | 0.417 µM | C[C@H]1c2nn(C)c(-c3ccnc(C(F)(F)F)c3)c2CCN1C(=O)c1ccc2ncccc2c1 [Example 523, [(7S)-2,7-Dimethyl-3-[2-(trifluoromethyl)-4-pyridyl]-5,7-dihydro-4H-pyrazolo[3,4-c]pyridin-6-yl]-(6-quinolyl)methanone]
7 | 0.0953 µM | C[C@H]1c2nn(C)c(-c3cc(F)c(F)c(F)c3)c2CCN1C(=O)c1nn(C)c2cnccc12 [Example 431, [(7S)-2,7-Dimethyl-3-(3,4,5-trifluorophenyl)-5,7-dihydro-4H-pyrazolo[3,4-c]pyridin-6-yl]-(1-methylpyrazolo[3,4-c]pyridin-3-yl)methanone.TFA salt]
8 | 0.0459 µM | C[C@H]1c2nn(C)c(-c3cc(F)c(F)c(F)c3)c2CCN1C(=O)c1ccnc2[nH]ncc12 [Example 422, [(7S)-2,7-Dimethyl-3-(3,4,5-trifluorophenyl)-5,7-dihydro-4H-pyrazolo[3,4-c]pyridin-6-yl]-(1H-pyrazolo[3,4-b]pyridin-4-yl)methanone]
9 | 0.0113 µM | C[C@H]1c2nn(C)c(-c3cc(F)c(F)c(F)c3)c2CCN1C(=O)c1ccc2[nH]c(=O)oc2c1 [Example 588, 6-[(7S)-2,7-Dimethyl-3-(3,4,5-trifluorophenyl)-5,7-dihydro-4H-pyrazolo[3,4-c]pyridine-6-carbonyl]-3H-1,3-benzoxazol-2-one]
10 | 0.252 µM | C[C@H]1c2nn(C)c(-c3cc(F)c(F)c(F)c3)c2CCN1C(=O)c1cnc2cc(F)ccn12 [Example 393, [(7S)-2,7-Dimethyl-3-(3,4,5-trifluorophenyl)-5,7-dihydro-4H-pyrazolo[3,4-c]pyridin-6-yl]-(7-fluoroimidazo[1,2-a]pyridin-3-yl)methanone]
11 | 0.0137 µM | C[C@H]1c2nn(C)c(-c3cc(F)c(F)c(F)c3)c2CCN1C(=O)c1nccc2ncccc12 [Example 486]
12 | 0.0303 µM | Cc1[nH]c2ncccc2c1C(=O)N1CCc2c(nn(C)c2-c2cc(F)c(F)c(F)c2)[C@@H]1C [Example 375, [(7S)-2,7-Dimethyl-3-(3,4,5-trifluorophenyl)-5,7-dihydro-4H-pyrazolo[3,4-c]pyridin-6-yl]-(2-methyl-1H-pyrrolo[2,3-b]pyridin-3-yl)methanone]
13 | 0.0361 µM | Cc1cn(C)c2ncnc(C(=O)N3CCc4c(nn(C)c4-c4cc(F)c(F)c(F)c4)[C@@H]3C)c12 [Example 467, (5,7-Dimethylpyrrolo[2,3-d]pyrimidin-4-yl)-[(7S)-2,7-dimethyl-3-(3,4,5-trifluorophenyl)-5,7-dihydro-4H-pyrazolo[3,4-c]pyridin-6-yl] methanone]

Same assay, conditions: 300 nM [Glycerol-1,3-3H]-oleyl glycerol, one hour incubation

Row | IC50 | SMILES
14 | 0.00892 µM | C[C@H]1c2nn(C)c(-c3cc(F)c(F)c(F)c3)c2CCN1C(=O)c1ccc(-c2ccn[nH]2)cc1 [Example 269, [(7S)-2,7-Dimethyl-3-(3,4,5-trifluorophenyl)-5,7-dihydro-4H-pyrazolo[3,4-c]pyridin-6-yl]-[4-(1H-pyrazol-5-yl)phenyl]methanone]
15 | 1.63 µM | Cn1nc2c(c1-c1ccccc1)CCN(C(=O)c1cccc3cn[nH]c13)C2 [Example 67, (1H-Indazol-7-yl)(2-methyl-3-phenyl-2,4,5,7-tetrahydro-6H-pyrazolo[3,4-c]pyridin-6-yl)methanone]
16 | 0.0079 µM | C[C@H]1c2nn(C)c(-c3cc(F)c(F)c(F)c3)c2CCN1C(=O)c1ccc(-c2ccccn2)s1 [Example 325, [(7S)-2,7-Dimethyl-3-(3,4,5-trifluorophenyl)-5,7-dihydro-4H-pyrazolo[3,4-c]pyridin-6-yl]-[5-(2-pyridyl)-2-thienyl]methanone]
17 | 3.74 µM | C[C@@H]1c2nn(C)c(-c3cc(F)cc(F)c3)c2CCN1C(=O)c1ccc2nccnc2c1 (single isomer, unassigned) [Example 169]
18 | 0.406 µM | Cn1nc2c(c1-c1cc3ccccc3n1C)CCN(C(=O)c1ccc3ncccc3c1)C2 [Example 105, (2-Methyl-3-(1-methyl-1H-indol-2-yl)-2,4,5,7-tetrahydro-6H-pyrazolo[3,4-c]pyridin-6-yl)(quinolin-6-yl)methanone]
19 | 2.46 µM | Cn1nc2c(c1-c1ccccc1)CCN(C(=O)c1cccc3c1NC(=O)CO3)C2 [Example 26, 5-(2-Methyl-3-phenyl-4,5,6,7-tetrahydro-2H-pyrazolo[3,4-c]pyridine-6-carbonyl)-2H-benzo[b][1,4]oxazin-3(4H)-one]
20 | 1.5 µM | Cn1nc2c(c1-c1ccccc1)CCN(C(=O)c1c[nH]c3ccncc13)C2 [Example 83, (2-Methyl-3-phenyl-2,4,5,7-tetrahydro-6H-pyrazolo[3,4-c]pyridin-6-yl)(1H-pyrrolo[3,2-c]pyridin-3-yl)methanone]
21 | 0.319 µM | Cn1nc2c(c1-c1ccccc1)CCN(C(=O)c1c[nH]c3ccccc13)C2 [Example 44, (1H-Indol-3-yl)(2-methyl-3-phenyl-2,4,5,7-tetrahydro-6H-pyrazolo[3,4-c]pyridin-6-yl)methanone]
22 | 0.312 µM | COc1ccc(C)c(C(=O)N2CCc3c(nn(C)c3-c3cc(F)c(F)c(F)c3)[C@@H]2C)n1 [Example 302, [(7S)-2,7-Dimethyl-3-(3,4,5-trifluorophenyl)-5,7-dihydro-4H-pyrazolo[3,4-c]pyridin-6-yl]-(6-methoxy-3-methyl-2-pyridyl)methanone]
23 | 0.0604 µM | C[C@H]1c2nn(C)c(-c3cc(F)c(F)c(F)c3)c2CCN1C(=O)c1cc(-n2nccn2)cc(C(F)(F)F)c1 [Example 287, [(7S)-2,7-Dimethyl-3-(3,4,5-trifluorophenyl)-5,7-dihydro-4H-pyrazolo[3,4-c]pyridin-6-yl]-[3-(triazol-2-yl)-5-(trifluoromethyl)phenyl]methanone]
24 | 8.24 µM | C[C@@H]1c2nn(C)c(-c3ccccc3)c2CCN1C(=O)c1ccc2ncccc2c1 (single isomer, unassigned) [Example 111]
